Test results from patent publication US20150259319A1, “AROMATIC ALKENOIC ACID DERIVATIVES” (Symrise AG, priority 2014, published 2015).

Test system: human neuroblastoma cells (SH-SY5Y)
Assay: Serotonin release of SH-SY5Y cells after stimulation (Serotonin-ELISA, standardized to DNA content)
Settings: for Serotonin release [% control]: 3 minutes stimulation in Krebs-Ringer HEPES buffer
Description: After serotonin release, the cells are harvested with trypsin and, after a vitality test by trypan blue staining, sown in a defined number of cells in 35 mm cell culture dishes.
The cells are lysed with a sodium laurylsarcosinate-containing buffer and the DNA content is ascertained with the aid of a NanoQuant plate (Tecan, Ménnendorf, Switzerland) for standardization of the serotonin release.

SMILES	Serotonin release [% control] (0.01 μM compound)	Serotonin release [% control] (0.1 μM compound)	rise in serotonin release compared to the control (1 μM compound) [%]	Serotonin release [% control] (1 μM compound)	Serotonin release [% control] (10 μM compound)
O=C(/C=C/C=C/CCc1ccc2c(c1)OCO2)N1CCCCC1 [Compound 3, 2E,4E-7-(1,3-Benzodioxol-5-yl)-1-(1-piperidyl)hepta-2,4-dien-1-one]	161	141	280	283	226
COC(=O)/C=C/C=C/CCc1ccc2c(c1)OCO2 [Compound 4, 2E,4E-Methyl 7-(1,3-benzodioxol-5-yl)hepta-2,4-dienoate]	129	123	240	239	171
